Entries after “also recorded” stand apart in the source; their conditions may differ.
Assays:
[1] = tested on: NPC1(−/−) mice; assay: 27-HC treatment of NPC1(−/−) mice by intraperitoneal injection; assay type: in vivo; details: i.p.
Experimental: FIG. 7A-C. Behavioral Analysis of NPC1(−/−) Mice Treated with 27-HC. NPC1(−/−) treated with 0 mg/kg (●) or 10 mg/kg (▴) 27-HC once per week by intraperitoneal injection were tested using (A) Tremor Scores p=0.01), (B) Rotarod Analysis (p=0.0037) or (C) Coathanger Tests (p=0.0229).
FIG. 8. Impact of 27-HC Treatment on NPC1 (−/−) Mice. Immunohistochemical staining of cerebella stained for calbindin after treatment with either Omg/kg or 10 mg·kg 27-HC once per week by intraperitoneal injection. Brown staining indicates Purkinje cell survival in lobes of the cerebellum (I, V, X).
FIG. 9A-C. Impact of 27-HC Treatment on NPC1 (−/−) Mice. Quantification of Purkinje cells preservation at days (A) P42, (B) P63 or (C) P77. Lobes are binned as I-V, VI-VII, VIII, or IX-X. A Student's t-test was calculated on total Purkinje cell counts from each timepoint (p-values).
FIG. 10. Impact of 27-HC Treatment on NPC1 (−/−) Mice. Kaplan-Meier lifespan analysis of NPC1 (−/−) mice treated with either 0 mg/kg (dashed line) or 10 mg/kg (solid line) 27-HC.
(§1) To test this idea, we treated either NPC1 mutant (null or I1061T) or StARD9 mutant (null or truncation mutant) cells with 27-HC in a cocktail that delivers it into the cytoplasm independent of receptor-mediated endocytosis. […] Next, we treated NPC1(−/−) mice with 27-HC by i.p. delivery.

[2] = tested on: lysosomal tubulation; assay: Rescue of lysosomal tubulation with purified oxysterols in LDL-depleted media (FIG. 4); assay type: cell-based
Experimental: FIG. 4. Rescue of Lysosomal Tubulation with Purified Oxysterols. Measurements of lysosomal tubulation comparing control complete media (Control) to media depleted of LDL (LDL−) and depleted media supplemented with 27-hydroxycholesterol (27-HC), 24-hydroxycholesterol (24-HC) or 25-hydroxycholesterol (25-HC).
Fixed and live-cell imaging was performed on COS-7 cells grown in Dulbecco's Modified Eagle's Medium (DMEM) supplemented with 10% fetal bovine serum, 1% L-glutamine, and penicillin/streptomycin (Sigma-Aldrich). Transfections were performed using either Lipofectamine (Life Technologies), X-treme Gene DNA Transfection reagent (Roche, Indianapolis, IN) or Nanofect (Allstem, Richmond, CA). J774A.1 mouse macrophages were provided and cultured in the same media. Cells were tested for contamination using PCR-based test kits (Sartorius, Inc.; Cat #SMB95-1001).
Microscopy experiments were performed on a Zeiss Axiovert 200M (Thornwood, NY) run by Metamorph software (Sunnyvale, CA). Fixed and live cell imaging data was collected using either a Photometrics Coolsnap HQ or Cascade 1k CCD camera (Tucson, AZ). Timelapse imaging of cells expressing NPC1-EGFP and mCherry-StARD9 utilized a Dual-view camera (Photometrics) adapter to allow simultaneous acquisition of green and red channels at each timepoint. Kymographs were generated in Metamorph using a 1p m slice from each frame.
as §1

[3] = tested on: StARD9 mutant (null or truncation mutant) cells; assay: Rescue of lysosomal tubulation by 27-HC in StARD9 mutant cells (FIG. 5); assay type: cell-based; details: 27-HC in a cocktail that bypasses receptor-mediated endocytosis
Excerpt: FIG. 5. Impact of NPC1 and StARD9 Mutations on Rescue of Lysosomal Tubulation by 27-Hydroxycholesterol (27-HC). The ability of 27-HC to rescue lysosomal tubulation after depletion of NPC1 (shRNA-NPC1) or StARD9 (shRNA-STARD9) was compared to cells expressing the NPC1 (I1061T)-eGFP mutant (I1061T) or a eGFP-StARD9 construct expressing amino acids 1-4483 (STARD9-ΔSTART). ***—p<0.005; ns (not significant).
as §1

[4] = tested on: StARD9(−/−)/NPC1 (I1061T/I1061T) mice; assay: 27-HC treatment of mice mutant for both NPC1 and StARD9 / StARD9 knock-out mice; assay type: in vivo; details: 5 mg/kg three times per week oral gavage; vs NPC1 (I1061T/I1061T) mice; p=0.0001
Experimental: FIG. 12. Impact of 27-HC Treatment on NPC1 (I1061T/I1061T)/StARD9 (−/−) Mice. Kaplan-Meier lifespan analysis of NPC1 (I1061T/I1061T) mice (solid line) to StARD9(−/−)/NPC1 (I1061T/I1061T) mice (dashed line) each treated with 5 mg/kg 27-HC three times per week by oral gavage.
Mutations in the NPC1 gene affect two independent lysosomal functions. The first is the generation of lysosomal tubules as a mechanism to deliver intracellular cholesterol to other membrane-bound compartments. Because this function is impaired in NPC disease, we investigated the protein components necessary for tubule projection. We identified 27-HC as a signaling molecule that stimulates lysosomal tubulation and is not provided properly to lysosomal membrane to elicit tubulation in NPC disease. To correct this defect, we provide pure 27-HC in a cocktail that bypasses endocytosis. […] We have also tested this therapy in two different transgenic strains of mice with NPC1 mutations. […] Because we know the molecular target for 27-HC (StARD9), we tested 27-HC treatment in mice where we removed the StARD9 gene. […] This confirms the molecular target for 27-HC treatment and is consistent with our proposed model for the defects in NPC disease. Independent of the role for NPC1 in lysosomal tubulation, NPC1 is the “receptor” for the pro-apoptotic protein STING. […]

C[C@@H](CO)CCC[C@@H](C)[C@H]1CC[C@H]2[C@@H]3CC=C4C[C@@H](O)CC[C@]4(C)[C@H]3CC[C@]12C [27-HC, 27-hydroxycholesterol]
Lifespan (Kaplan-Meier) ([1]; 10 mg/kg vs 0 mg/kg, p=0.0214): extended the lifespan of the mice; also recorded: Extension of lifespan was significant | Onset of symptoms ([1]; vs vehicle alone): delayed the onset of symptoms | Purkinje cell preservation ([1]; vs vehicle alone): preserved Purkinje cells | Severity of symptoms ([1]; vs vehicle alone): reduced the severity of symptoms | Potency as signaling molecule for StARD9 among cholesterol and individual oxysterols [2]: most potent candidate | Rescue of lysosomal tubulation in StARD9 mutant cells [3]: not StARD9 mutant cells | Benefit of 27-HC treatment (lifespan) in mice lacking StARD9 [4]: the benefit of the 27-HC treatment was lost; also recorded: significantly less effective; also recorded: does not provide any benefit
